Series [1] concerns the target Casein kinase II subunit alpha (Homo sapiens, UniProt P68400). In words: Inhibition of GST-tagged human CK2alpha (1 to 391 residues) using CK2tide as substrate incubated for 1 hr by off-chip mobility shift assay.
Series [2] can be described thus: Thermodynamic solubility of compound in 67 mM phosphate buffer at pH 7.4 after 24 hrs by HPLC analysis. In kind it is physicochemical. Particulars: read-out: Therm_solubility.
Another series concerns A549. In words: Cytotoxicity against human A549 cells after 72 hrs by MTS assay. In kind it is functional. Conditions: A549, 72 h.
Series [3] deals with Casein kinase II subunit alpha' (Homo sapiens, UniProt P19784). In words: Inhibition of GST-tagged human CK2alpha' (1 to 350 residues) using CK2tide as substrate incubated for 1 hr by off-chip mobility shift assay.

Structures are written as SMILES. Converted amounts (≈) assume the structure as drawn.

The term IC50 denotes the concentration at which inhibition is half-maximal. The CC50 is the concentration that lowers cell viability or growth by half. The low end stands for harm at low concentration, the high end for better tolerance by the cells.

For `COc1ccc(C(=O)Nc2ncc(-c3ccc(C(=O)O)cc3)s2)cc1`, the figures for the IC50 in series [1] and in series [3] were 0.02 µM and 0.011 µM, respectively. Moreover, the solubility thermodynamic at 24 h in series [2] was determined as 2.7 µg/mL (≈ 7.62 µM). Also, it took 8.5 µM to reach half-maximal cytotoxicity in the series on A549 (CC50).
The compound `COc1ccc(C(=O)Nc2ncc(-c3ccc(C(=O)O)cc3OCc3ccccc3)s2)cc1` yielded a CC50 in the series with A549 of 1.5 µM.
For `COc1ccc(C(=O)Nc2ncc(-c3ccc(C(=O)O)nn3)s2)cc1`, the solubility thermodynamic at 24 h in series [2] was determined as 1020 µg/mL (≈ 2880 µM). This compound also came in with a CC50 in the series with A549 of over 30 µM.
In the series with A549, `COc1ccc(C(=O)Nc2ncc(-c3ccc(C(=O)O)c4ccccc34)s2)cc1` gave a CC50 of over 30 µM.
Turning to `COc1ccc(C(=O)Nc2ncc(-c3ccc(C(=O)O)cc3Oc3ccccc3)s2)cc1`, the CC50 in the series on A549 was determined as 4.7 µM.
In the series on A549, `COc1ccc(C(=O)Nc2ncc(-c3ccc(C(=O)O)cc3OCc3ccccn3)s2)cc1` returned a CC50 of over 30 µM.
The compound `COc1ccc(C(=O)Nc2ncc(-c3ccc(C(=O)O)cc3OCc3ccccc3Br)s2)cc1` registered a CC50 in the series with A549 of 1.5 µM.
Regarding `COc1ccc(C(=O)Nc2ncc(-c3ccc(C(=O)O)cc3OCc3ccccc3OC)s2)cc1`, the solubility thermodynamic at 24 h in series [2] worked out at 1.4 µg/mL (≈ 2.85 µM). This compound registered a CC50 with A549 of 2 µM.
For the compound `COc1ccc(C(=O)Nc2ncc(-c3ccc(C(=O)O)cc3OCc3ccc(Cl)cc3)s2)cc1`, in the series on A549, it took 2.5 µM to reach half-maximal cytotoxicity (CC50). This counts as single-digit micromolar.
`COc1ccc(C(=O)Nc2ncc(-c3ccc(C(=O)O)cc3OCc3ccccc3C#N)s2)cc1` showed a CC50 in the series on A549 of over 30 µM.
`COc1ccc(C(=O)Nc2ncc(-c3ccc(C(=O)O)cc3OCc3cccc(Cl)c3)s2)cc1` had a CC50 in the series with A549 of 18.7 µM. This lies in the double-digit micromolar range.
On to `COc1ccc(C(=O)Nc2ncc(-c3ccc(C(=O)O)cc3OCc3ccccc3Cl)s2)cc1`, for which the midpoint of cytotoxicity in the series with A549, the CC50, lay at 1.6 µM.
With `COc1ccc(C(=O)Nc2ncc(-c3ccc(C(=O)O)cn3)s2)cc1`, the solubility thermodynamic at 24 h in series [2] turned out to be 90 µg/mL (≈ 253 µM). For the same compound, the CC50 in the series on A549 was over 30 µM.
In the case of `COc1ccc(C(=O)Nc2ncc(-c3ccc(C(=O)O)cc3OCc3ccccc3F)s2)cc1`, the midpoint of cytotoxicity in the series on A549, the CC50, lay at 3.3 µM.
The same measure, in the same setting: for `COc1ccc(C(=O)Nc2ncc(-c3ccc(C(=O)O)cc3OCCc3ccccc3)s2)cc1` the value was 3.6 µM.
On to `COc1ccc(C(=O)Nc2ncc(-c3ccc(C(=O)O)nc3)s2)cc1`, for which, in series [2], the solubility thermodynamic at 24 h turned out to be 14 µg/mL (≈ 39.4 µM). Besides, the CC50 in the series with A549 was over 30 µM.
As to `COc1ccc(C(=O)Nc2ncc(-c3ccc(C(=O)O)cc3COc3ccccc3)s2)cc1`, in the series with A549, the midpoint of cytotoxicity, the CC50, lay at 21.9 µM.
With `O=C(O)c1ccc2c(c1)nc(Nc1cccc(Cl)c1)c1ccncc12` [SILMITASERTIB], the solubility thermodynamic at 24 h in series [2] was determined as 57 µg/mL (≈ 163 µM). Further, the CC50 in the series on A549 came to 9.9 µM.

The record behind these values is ChEMBL document CHEMBL3758074, “Structure-activity relationship study of 4-(thiazol-5-yl)benzoic acid derivatives as potent protein kinase CK2 inhibitors” (Bioorg Med Chem, 2016).
